Assay results: PubChem BioAssay (NCI)
Where “and” joins values, the source holds several entries; their conditions need not be identical. Identical values can stand only once.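 48-hour exposure; five concentrations; linearly interpolated endpoints. Abbreviation: GI50, concentration required for 50% inhibition of growth. TGI is the concentration that stops growth completely.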

Assays:
Assay in all cases: inhibition of tumour cell growth, NCI panel, 48 h
DMS 114 small cell lung = tested on: DMS 114 small cell lung
XF 498 CNS = tested on: XF 498 CNS
HOP-18 NSCLC = tested on: HOP-18 NSCLC
BT-549 breast = tested on: BT-549 breast
DU-145 prostate = tested on: DU-145 prostate
MCF7 breast = tested on: MCF7 breast
MDA-MB-231 breast = tested on: MDA-MB-231 breast
MDA-MB-435 = tested on: MDA-MB-435
NCI/ADR-RES ovarian = tested on: NCI/ADR-RES ovarian
T-47D breast = tested on: T-47D breast

Row | Structure (SMILES) | TGI (DMS 114 small cell lung) | TGI (XF 498 CNS) | TGI (HOP-18 NSCLC) | other results
1 | CCN(CC)C(=O)C/C(C)=N/NC(=O)c1ccncc1 | > 100 µM | > 100 µM | – | –
2 | COc1ccc(C(=O)O)c(Cc2cccc3ccccc23)c1 | > 100 µM | – | > 100 µM | –
3 | Cc1cccc(N2C(=O)C(Cl)=C(Cl)C2=O)c1 | > 100 µM | > 100 µM | > 100 µM | –
4 | O=c1[nH]c(=O)n(C2CC(O)C(CS)O2)cc1F (configuration not stated) | > 100 µM | > 100 µM | > 100 µM | TGI (BT-549 breast): > 100 µM; TGI (DU-145 prostate): > 100 µM; TGI (MCF7 breast): > 43.5 µM; TGI (MDA-MB-231 breast): > 100 µM; TGI (MDA-MB-435): > 100 µM; TGI (NCI/ADR-RES ovarian): > 11.7 µM; TGI (T-47D breast): > 100 µM
5 | COC(=O)C1=C(c2ccc3c(c2)OCO3)O[C@H](c2ccc3c(c2)OCO3)[C@H]1COC(C)=O | > 100 µM | > 100 µM | > 100 µM | –
6 | Cc1cc(NS(=O)(=O)c2ccc(NC(=O)c3cccc4c(=O)c5ccccc5[nH]c34)cc2)no1 | > 100 µM | 55.4 µM | 28.2 µM | –
7 | O=S(O)CCCCSSCCCCSSCCCCS(=O)O | > 100 µM | 21.4 µM | > 100 µM | –
8 | CCOC(=O)NC(=O)c1cn(CCCOC(=O)NCCCCCCNC(=O)OCCCn2c(=O)c(C(=O)NC(=O)OCC)cn(C)c2=O)c(=O)n(C)c1=O | > 100 µM | – | > 100 µM | –
9 | C#CC[C@]12CC(=O)CC[C@H]1CC(=O)C2 | – | – | > 100 µM | –
10 | Cc1cc(C2CCCCC2)n(O)c(=O)c1 | > 100 µM | 35.8 µM | > 100 µM | GI50 (BT-549 breast): 6.19 µM; TGI (BT-549 breast): > 100 µM; GI50 (DU-145 prostate): 2.04 µM; TGI (DU-145 prostate): > 100 µM; GI50 (MCF7 breast): 3.01 µM; TGI (MCF7 breast): > 100 µM; GI50 (MDA-MB-231 breast): 2.16 µM; TGI (MDA-MB-231 breast): > 100 µM; GI50 (MDA-MB-435): 2.27 µM; TGI (MDA-MB-435): > 100 µM; GI50 (NCI/ADR-RES ovarian): 1.22 µM; TGI (NCI/ADR-RES ovarian): 14.9 µM; GI50 (T-47D breast): 2.63 µM; TGI (T-47D breast): > 100 µM
11 | CCOC(=O)[C@H]1Nc2ccc(C)cc2C2c3ccccc3CC21 (some centres not stated) | > 100 µM | – | > 100 µM | –
12 | O=C(NC1CCCCCC1)C1C(=O)N(C2CCCCCC2)C(=O)/C1=N\O (configuration not stated) | 84.5 µM | – | > 100 µM | –
13 | CC#CC(=O)Nc1ccccc1CC(c1c[nH]c2ccccc12)c1c[nH]c2ccccc12 | 29.9 µM | – | – | –
14 | CN(C)C(=S)/N=c1\ss/c(=N\C(=S)N(C)C)n1-c1ccc2c(c1)OCO2 | > 100 µM | – | – | –
15 | N#Cc1cnsc1 | > 100 µM | > 100 µM | > 100 µM | –
16 | O=C(/C=C/c1ccccc1Cl)c1ccccc1Cl | 34.8 µM | – | 89.2 µM | –
17 | CC(=O)SCCC1c2[nH]c3ccccc3c2CCN1O (configuration not stated) | > 100 µM | – | > 100 µM | –

Row | Structure (SMILES) | TGI (DMS 114 small cell lung) | TGI (XF 498 CNS) | TGI (HOP-18 NSCLC) | other results
18 | CCCN(CCCCC(NC(C)=O)C(=O)NCc1ccccc1)C(=O)N(CCCl)N=O (configuration not stated) | > 100 µM | > 100 µM | > 100 µM | TGI (BT-549 breast): > 100 µM; TGI (DU-145 prostate): > 100 µM; TGI (MCF7 breast): > 100 µM; TGI (MDA-MB-231 breast): > 100 µM; TGI (MDA-MB-435): > 100 µM; TGI (NCI/ADR-RES ovarian): > 100 µM; TGI (T-47D breast): > 100 µM
19 | Cc1ccc(N=NC(C(=O)c2ccccc2)C(=O)c2ccccc2)cc1 | 54.7 µM | 54.6 µM | – | –
20 | CC(C)=[CH][Sb]([Br])([CH]=C(C)C)([CH]=C(C)C)[CH]=C(C)C | 4.85 µM | > 100 µM | – | GI50 (DMS 114 small cell lung): 1.61 µM; GI50 (XF 498 CNS): 16.4 µM
21 | N#CCCN(c1ccc(/C=C2\N=C(c3ccc(Cl)cc3)OC2=O)cc1)S(=O)(=O)c1ccccc1 | > 100 µM | > 100 µM | – | –
22 | CCCCCCCCCCCCCCCCOP(=O)(O)Oc1ccc(/C=C\c2ccc(OP(=O)(O)OCCCCCCCCCCCCCCCC)cc2)cc1 | 49.4 µM | – | > 100 µM | –
23 | CC(=O)NC(CCCN)C(=O)NCc1ccccc1 (configuration not stated) | > 100 µM | > 100 µM | – | –
24 | COc1cc(Cc2cc(OC)c(OC)c(OC)c2)ccc1O | > 100 µM | > 100 µM | – | –
25 | COc1cc(C2c3cc4c(cc3[C@H](OCCN(C)C)[C@@H]3COC(=O)C23)OCO4)cc(OC)c1O (some centres not stated) | – | 1.88 µM | > 100 µM | TGI (BT-549 breast): 2.32 µM; TGI (DU-145 prostate): 0.549 µM; TGI (MCF7 breast): > 100 µM; TGI (MDA-MB-231 breast): 39.3 µM; TGI (MDA-MB-435): 16.9 µM; TGI (NCI/ADR-RES ovarian): 15.1 µM; TGI (T-47D breast): 2.52 µM
26 | COC(=O)c1cc2c(c(C(=O)OC)c1O)C(=O)C=CC2=O | > 78.8 µM | > 100 µM | 9.1 µM and 29.9 µM | GI50 (DMS 114 small cell lung): > 9.1 µM; GI50 (HOP-18 NSCLC): 16.3 µM; GI50 (XF 498 CNS): 37.8 µM
27 | CCc1cccc(C)c1NC(C)=O | > 100 µM | > 100 µM | – | –
28 | Cc1ccc(C(=O)/C=C/c2ccccc2O)c(C)c1 | > 100 µM | – | – | –
29 | N#CCCN(CCC#N)c1ccc(/C=C2\N=C(CN3C(=O)c4ccccc4C3=O)OC2=O)cc1 | > 100 µM | > 100 µM | – | –
30 | Cc1ccc(NC(=O)C2C(=O)N(c3ccc(C)c(C)c3)C(=O)/C2=N/O)cc1C (configuration not stated) | > 100 µM | > 100 µM | > 100 µM | –
31 | COC(=O)C(=O)C(C(=O)C=C(C)C)C(=O)C(=O)Nc1ccc(Cl)cc1C (configuration not stated) | > 100 µM | – | > 100 µM | –
32 | CSc1ccc(/C=C2/C[N+](C)(C)C/C(=C/c3ccc(SC)cc3)C2=O)cc1 | 21.1 µM | 29.1 µM | 79.2 µM | –
33 | N#CCCN(CCC#N)c1ccc(C(=O)NN)cc1 | > 100 µM | > 100 µM | > 100 µM | –
34 | CC(C)=CC(=O)N1CCN(C(=O)C=C(C)C)CC1 | > 100 µM | > 100 µM | > 100 µM | –
